Reference: EP0070049A1, “Derivative of acetylsalicylic acid having an analgetic, antipyretic, antiphlogistic and bronchosecretolytic activity” (UNIONE CHIMICA MEDICAMENTI- DIFME-S.p.A., priority 1981, dated 1983)

Key:
rats = conditions: rat, in vivo, 915 mg/kg
Text: La toxicité subaiguë de l'acétylsalicylate de 2(o-méthoxy-phénoxy)éthanol a été évaluée en comparaison avec celle de l'acide acétylsalicylique en administrant à des rats, par voie orale, des doses journalières de substance pour 10 jours, et en relevant le nombre des animaux morts, la diminution moyenne de poids des animaux traités et l'incidence des lésions gastriques relevées, distinguées en simple hyperémie, hyperémie accompagnée par hémorragie et hémorragie accompagnée par ulcérations. Les résultats des épreuves sont indiqués dans le Tableau 5, dans lequel la dose de substance administrée est exprimée en mg de substance par kg de poids corporel et par jour, et la diminution moyenne de poids corporel à la fin du traitement est exprimée en grammes.

[1] = tested on: arbre bronchial de rats Wistar; experiment: Bronchosecretolytic activity: pulmonary excretion of fluorescein (Mawatari); format: in vivo; conditions: rats Wistar, 200 mg/Kg
Text: L'activité bronchosécrétolytique de l'acétylsalicylate de 2(o-méthoxy-phénoxy)éthanol a été évaluée en comparaison avec celle du gaïacoléthanol, sur la base de la mesure des variations de la quantité d'indicateur (fluorescéine) trouvée dans l'arbre bronchial de rats Wistar, recueillie au moyen d'un système de lavage standardisé, après injection parentérale de l'indicateur, et mesurée au moyen d'un spectrofluorométre, suivant la méthode décrite par H.Mawatari ("Expérimental studies on the expectorant action of several drugs", Kagoshima Daigakeu Igakeu Zasshi, volume 27, page 561, 1976). Les résultats de l'élaboration statistique des épreuves sont recueillis dans le suivant tableau 4,dans lequel l' excrétion pulmonaire de fluorescéine est exprimée en microgrammes ± la déviation standard, soit dans la quantité totale trouvée, soit dans la quantité pour-cent rapportée à 100 g de poids corporel des rats. Entre parenthèses sont indiquées les valeurs de l'augmentation pour-cent par rapport aux contrôles. Pour les autres valeurs est valable ce qui été précisé en relation au Tableau 1.

[2] = Acute oral toxicity (DL50, Lichtfield et al); set-up: species or system rats; conditions: rat, in vivo
Text: La toxicité aiguë de l'acétylsalicylate de 2(o-méthoxy--phénoxy)éthanol a été évaluée en comparaison avec celle de l'acide acétylsalicylique et exprimée comme dose DL50 (la dose qui provoque la mort du 50% des animaux traités) en mg/kg de poids corporel des rats auxquels la substance a été administrée par voie orale. Les résultats de l'élaboration statistique suivant la méthode décrite par J.T.Lichtfield et al (J. Pharm. Exp. Ther., volume 96, page 99, 1949) donnent les suivantes valeurs de la dose toxique DLSO et, entre parenthèses, de son intervalle fiducial (valeurs minimale et maximale relevées): • acide acétylsalicylique 1400 (1207 1580) • acétylsalicylate de • 2(o-méthoxy-phénoxy)éthanol 2934 (2696 3098)

[3] = Solubility (characteristics of the substance); format: physicochemical
[4] = tested on: oedème induit par carraghénine injectée dans la patte de rats; experiment: Carrageenan-induced rat paw oedema (antiphlogistic activity, Winter et al); format: in vivo; conditions: voie orale; for Volume de l'oedème - ml ± d.s. après 3 heures: 3 heures après le traitement oedémigène; for Volume de l'oedème - ml ± d.s. après 6 heures: 6 heures après le traitement oedémigène
Text: L'activité antiphlogistique de l'acétylsalicylate de 2(o-méthoxy-phénoxy) éthanol a été évaluée en comparaison avec celle de l'acide acétylsalicylique sur la base de la variation de volume de l'oedème induit par carraghénine injectée dans la patte de rats, suivant la technique décrite par Winter et al (Proc. Soc. Exp. Biol. Med., volume III, page 544, 1962). Les résultats de l'élaboration des épreuves sont indiqués dans le Tableau 1, dans lequel le volume de l'oedème est indiqué en millilitres z la déviation standard, et il a été mesuré 3, 4,5 et 6 heures après le traitement oedémigène; la dose de substance est indiquée en milligrammes de substance administrée par voie orale pour chaque kilogramme de poids corporel des rats; les valeurs marquées par * correspondent à une probabilité d'erreur p < 0,05, les valeurs marquées correspondent à une probabilité d'erreur p < 0,01, calculées sur les valeurs des contrôles, et les valeurs indiquées entre parenthèses indiquent l'inhibition en pour-cent calculée par rapport aux contrôles.

[5] = tested on: température corporelle, augmentée par l'injection intraveineuse de nucléinate de sodium dans le lapin; experiment: Antipyretic activity: rise in body temperature induced by intravenous sodium nucleinate; format: in vivo; conditions: for Augmentation temperature corporelle - °C ± d.s. après 1 heure: 1 heure après l'administration; for Augmentation temperature corporelle - °C ± d.s. après 2 heures: 2 heures après l'administration; for Augmentation temperature corporelle - °C ± d.s. après 3 heures: 3 heures après l'administration; for Augmentation temperature corporelle - °C ± d.s. après 4 heures: 4 heures après l'administration
Text: L'activité antipyrétique de l'acétylsalicylate de 2(o-méthoxy-phénoxy)éthanol a été evaluée en comparaison avec celle de l'acide acétylsalicylique suivant la méthode, universellement employée, de la mesure de la variation de la température corporelle, augmentée par 1' injection intraveineuse de nucléinate de sodium dans le lapin. Les résultats de l'élaboration statistique des épreuves sont indiqués dans le suivant Tableau 2, dans lequel l'augmentation de la température corporelle est indiquée en °C ± la déviation standard, et a été mesurée 1, 2, 3 et 4 heures après l'administration; pour les autres valeurs est valable ce qui a été spécifié en relation avec le Tableau 1.

COc1ccccc1OCCOC(=O)c1ccccc1OC(C)=O [acétylsalicylate de 2(o-méthoxy-phénoxy)éthanol]
Lésions gastriques Hyperémie (rats): 4 | Lésions gastriques Hyperémie + hémorragie (rats): 2 | Lésions gastriques Hémorragie + ulcérations (rats): = | Nombre animaux morts (rats): 3 | Δ poids moyenne (rats): -10 grammes | augmentation pour-cent par rapport aux contrôles (excrétion pulmonaire de fluorescéine, quantité totale) [1]: +90,8 pour-cent | Excrétion pulmonaire de fluorescéine Quantité pour-cent µg/100 g ([1]; rapportée à 100 g de poids corporel, ± déviation standard): 0,230 ± 0,042 µg/100 g | Excrétion pulmonaire de fluorescéine Quantité totale µg ([1]; ± déviation standard): 0,481 ± 0,068 µg | LD50 [2]: 2930 mg/kg | solubilité en solvants organiques ([3]; benzène, chloroforme, diméthylcétone, éthanol, éther éthylique, isopropanol et autres solvants organiques): soluble | solubilité dans l'eau ([3]; eau): practiquement insoluble | inhibition en pour-cent calculée par rapport aux contrôles, après 3 heures ([4]; 100 mg/Kg): 44,0 pour-cent | Volume de l'oedème - ml ± d.s. après 3 heures ([4]; 100 mg/Kg): 0,380 ± 0,18 ml | inhibition en pour-cent calculée par rapport aux contrôles, après 4,5 heures ([4]; 100 mg/Kg, 4,5 heures): 45,0 pour-cent | Volume de l'oedème - ml ± d.s. après 4,5 heures ([4]; 100 mg/Kg, 4,5 heures après le traitement oedémigène): 0,333 ± 0,17 ml | inhibition en pour-cent calculée par rapport aux contrôles, après 6 heures ([4]; 100 mg/Kg): 39,0 pour-cent | Volume de l'oedème - ml ± d.s. après 6 heures ([4]; 100 mg/Kg): 0,291 ± 0,13 ml | inhibition en pour-cent calculée par rapport aux contrôles, après 3 heures ([4]; 200 mg/Kg): 70,0 pour-cent | Volume de l'oedème - ml ± d.s. après 3 heures ([4]; 200 mg/Kg): 0,20 + 0,1 ml | inhibition en pour-cent calculée par rapport aux contrôles, après 4,5 heures ([4]; 200 mg/Kg, 4,5 heures): 67,0 pour-cent | Volume de l'oedème - ml ± d.s. après 4,5 heures ([4]; 200 mg/Kg, 4,5 heures après le traitement oedémigène): 0,20 + 0,11 ml | inhibition en pour-cent calculée par rapport aux contrôles, après 6 heures ([4]; 200 mg/Kg): 65,0 pour-cent | Volume de l'oedème - ml ± d.s. après 6 heures ([4]; 200 mg/Kg): 0,16 + 0,1 ml | Augmentation temperature corporelle - °C ± d.s. après 1 heure ([5]; 100 mg/Kg): 1,15 ± 0,19 °C | inhibition en pour-cent calculée par rapport aux contrôles, après 2 heures ([5]; 100 mg/Kg): 22 pour-cent | Augmentation temperature corporelle - °C ± d.s. après 2 heures ([5]; 100 mg/Kg): 1,13 ± 0,2 °C | inhibition en pour-cent calculée par rapport aux contrôles, après 3 heures ([5]; 100 mg/Kg): 43 pour-cent | Augmentation temperature corporelle - °C ± d.s. après 3 heures ([5]; 100 mg/Kg): 0,94 ± 0,11 °C | inhibition en pour-cent calculée par rapport aux contrôles, après 4 heures ([5]; 100 mg/Kg): 56 pour-cent | Augmentation temperature corporelle - °C ± d.s. après 4 heures ([5]; 100 mg/Kg): 0,33 ± 0,07 °C | Augmentation temperature corporelle - °C ± d.s. après 1 heure ([5]; 200 mg/Kg): 1,1 ± 0,2 °C | inhibition en pour-cent calculée par rapport aux contrôles, après 2 heures ([5]; 200 mg/Kg): 24 pour-cent | Augmentation temperature corporelle - °C ± d.s. après 2 heures ([5]; 200 mg/Kg): 1,1 ± 0,17 °C | inhibition en pour-cent calculée par rapport aux contrôles, après 3 heures ([5]; 200 mg/Kg): 47 pour-cent | Augmentation temperature corporelle - °C ± d.s. après 3 heures ([5]; 200 mg/Kg): 0,87 ± 0,15 °C | inhibition en pour-cent calculée par rapport aux contrôles, après 4 heures ([5]; 200 mg/Kg): 62 pour-cent | Augmentation temperature corporelle - °C ± d.s. après 4 heures ([5]; 200 mg/Kg): 0,28 ± 0,05 °C
